# In US20140296143A1, “Angiotensin-(1-7) As A Chemoprevention Agent” (Wake Forest Innovations, priority 2008, published 2014):
# Assays:
# EA.hy.926 cells = test: Tube formation of endothelial cells in Matrigel; assay type: cell-based, human; conditions: over the range of 0.5 to 100 nM
# Description: These cells are a transformed human endothelial cell line derived from umbilical vein endothelial cells. They retain their endothelial phenotype and were previously used to study angiogenesis.
# After a 16 h incubation period to allow tube formation, cultures were photographed and branch points were counted, to quantify tube formation.
# [1] = test system: SK-MES-1 lung cancer cells; assay type: cell-based, human
# Description: (§2) Unless otherwise stated, cells were grown in DMEM with 10% fetal bovine serum (FBS), 100 μg/mL penicillin and 100 units/mL streptomycin in a humidified 37° C. incubator gassed with 5% CO2 and 95% room air. Cells were grown to subconfluence in either 24-well cluster plates or 100 mm dishes and made quiescent by treatment for 48 h with serum-depleted growth media, prior to the experiments outlined below to measure cell growth (^3H-thymidine incorporation), cell signaling or apoptosis.
# (§3) Subsequently, the cell monolayer was washed with cold phosphate-buffered saline (PBS; 50 mM NaPO4, 120 mM NaCl, pH=7.2). The adherent cells were precipitated with cold 10% TCA (4° C. for 30 min) and dissolved in 0.2% SDS in 0.1 N NaOH. Incorporated ^3H-thymidine was determined by liquid scintillation spectrometry, as previously described (Freeman, E. J. et al., Hypertension, 1996, 28:104-108). Growth inhibition was defined as a reduction in the amount of ^3H-thymidine incorporation as compared to the mitogen-stimulated controls.
# [2] = test system: poly(ADP-ribose) polymerase (PARP); test: Cleaved PARP (caspase-3 cleavage product) in serum-stimulated SK-LU-1 cells; assay type: cell-based, human; conditions: SK-LU-1, 10 nM, 4 to 8 hour treatment
# Description: Proteins were separated electrophoretically on SDS polyacrylamide gels, transferred to polyvinyl membranes, and incubated with primary antibodies to proteins of interest. Appropriate horseradish peroxidase (HRP)-conjugated second antibodies were added and immunoreactive products visualized using the enhanced chemoluminescence reagents from Amersham. The density of each immunoreactive product was quantified using the MCID imaging system. Antibodies to proteins that participate in cell signaling, apopotosis, and regulation of the cell cycle are commercially available from a variety of sources.
# Since caspase-3 is activated during apoptosis, an increase in the generation of its […] can be a measure of apoptosis.
# ERK2 = conditions: SK-LU-1, 10 nM pretreatment; Gallagher et al., 2004; cited from earlier work
# [3] = rats, Strawn 1999, cited from earlier work
# A549 lung cancer cells = test: Serum-stimulated ^3H-thymidine incorporation, A549; assay type: cell-based, human; conditions: A549, 1% FBS, daily addition of 100 nM
# Description: as §2, §3
# COX-2 = COX-2 protein (Western blot) and mRNA (RT real-time PCR) in A549 cells; assay type: cell-based, human
# Description: (§1) For reverse-transcriptase real-time PCR, RNA was isolated from cells or tissue, using the TRIzol reagent (GIBCO Invitrogen Corp., Carlsbad, Calif.), as directed by the manufacturer. The RNA concentration and integrity were assessed using an Agilent 2100 Bioanalyzer with an RNA 6000 nano LabChip (Agilent Technologies, Palo Alto, Calif.). Approximately 1 μg of total RNA was reverse transcribed using avian myeloblastosis virus reverse transcriptase (RT) in a 20 μL mixture containing deoxyribonucleotides, random hexamers and RNase inhibitor in RT buffer. Heating the RT reaction product at 95° C. terminated the reaction. For real-time polymerase chain reaction (PCR), 2 μL of the resultant cDNA was added to TaqMan Universal PCR Master Mix (Applied Biosystems, Foster City, Calif.) with a gene-specific primer/probe set (Applied Biosystems, Foster City, Calif.) and amplification was performed on an ABI 7000 Sequence Detection System. […] The results were quantified as Ct values, where Ct is defined as the threshold cycle of PCR at which amplified product is first detected, and expressed as the ratio of target/control (Relative Gene Expression).
# Quiescent A549 lung cancer cells or tumor tissue cut into approximately 1-2 mm^2 size pieces were homogenized in phosphate-buffered saline (PBS; 50 mM NaPO4, pH=7.2, 100 mM NaCl). […] The protein concentration was measured by a modification of the Lowry method. […]
# [4] = test system: MAP kinase kinase 5 (MEK5); test: MEK5 expression in SK-LU-1 cells by RT-PCR and Western analysis; assay type: cell-based, human; conditions: SK-LU-1, 1% serum, 10 nM, 4 and 8 h
# Description: RNA, isolated from cells or tissue, using the TRIzol reagent (GIBCO Invitrogen, Carlsbad, Calif.), was subjected to reverse transcriptase/real-time polymerase chain reaction as previously described (Tallant et al., Am. J. Physiol. Heart Circ. Physiol., 2005, 289:1560-1566). All reactions were performed in triplicate and 18S ribosomal RNA, amplified using the TaqMan Ribosomal RNA Control Kit (Applied Biosystems), served as an internal control. The results were quantified as Ct values, where Ct is defined as the threshold cycle of PCR at which amplified product is first detected, and defined as relative gene expression (the ratio of target/control). For RT-PCR, total RNA was isolated using the Atlas Pure Total RNA Labeling System (Clontech Laboratories, Inc). The RNA concentration was quantified by UV spectroscopy and any degradation assessed by ethidium bromide staining intensity of 28S and 18S ribosomal RNA following agarose gel electrophoresis. […] Following PCR, the amplification products were separated by polyacrylamide gel electrophoresis, visualized by autoradiography, and analyzed using the MCID imaging system.
# Proteins were separated electrophoretically on SDS polyacrylamide gels, transferred to polyvinyl membranes, and incubated with primary antibodies to proteins of interest. […] The density of each immunoreactive product was quantified using the MCID imaging system. […]
# COX-1 mRNA = COX-1 mRNA in A549 cells; assay type: cell-based, human; conditions: quiescent A549 cells, 100 nM, 2, 4, or 8 h
# Description: as §1, with “System. The mixtures were heated at 50° C. for 2 min, at 95° C. for 10 min followed by 40 cycles at 95° C. for 15 sec and 60° C. for 1 min.” for “System.”
compound,measurement,setting,value
"CC[C@H](C)[C@H](NC(=O)[C@H](Cc1ccc(O)cc1)NC(=O)[C@@H](NC(=O)[C@H](CCCNC(=N)N)NC(=O)[C@@H](N)CC(=O)O)C(C)C)C(=O)N[C@@H](Cc1c[nH]cn1)C(=O)N1CCC[C@H]1C(=O)O [Ang-(1-7), Asp-Arg-Val-Tyr-Ile-His-Pro]",inhibition of tube formation,EA.hy.926 cells,dose-dependent inhibition
same,IC50,[1]; 48 h,0.4 nM
same,^3H-thymidine incorporation over time of treatment,"[1]; SK-MES-1, 1% FBS, daily addition of 100 nM",progressively reduced
same,amount of cleaved PARP,[2],increase
same,reduction of serum-stimulated phosphorylation of ERK2,ERK2,68%
same,Ang-(1-7) in the circulation,"[3]; 24 μg/kg/h intravenous, 12 days, n=6-8, from 0.052±0.005",0.185 ± 0.046 nM
same,"tolerability: weight, blood pressure, heart rate",[3]; 24 μg/kg/hr,"no change in weight, blood pressure, or heart rate"
same,^3H-thymidine incorporation over time of treatment,A549 lung cancer cells,progressively reduced
same,COX-2 mRNA,"COX-2; 100 nM, 2, 4 and 8 h",significant reduction
same,COX-2 protein,"COX-2; 100 nM, 8-h treatment",marked decrease
same,MEK5 mRNA and protein,[4],reduced
same,COX-1 mRNA,COX-1 mRNA,no change
